From US8420606B2, “Method of utilizing physiological activity of rare saccharide and composition containing rare saccharide” (priority 2002, dated 2013)
“Also recorded” adds a separate entry of the source.

Experiments:
[1] = tested on: Hepatic cancer cells (HepG2); assay: proliferation of cultured cells, MTT method, HepG2; assay type: cell-based, human; conditions: saccharide 50 mM, 4 to 5 days
Protocol: Various kinds of rare saccharides were added at a concentration of 50 mM to culture media under the following conditions, and an influence of each rare saccharide upon the progress of proliferation of cancer cell strains was examined.
(1) Target cells to which the rare saccharides were added: Hepatic cancer cells (HepG2), uterine cancer cells (He1a), ovary cancer cells (OVCAR3), and skin keratinocyte (HaCaT) were selected as target cells to which the rare saccharides were added.
(2) Rare saccharides added: In addition to D-allose, glucose and D-altros as rare saccharides belonging to ketose were added, as other comparative saccharides, to the addition target cells. Also, D-fructose was employed as a control.
(3) Experiment method: A number 3,000-5,000 of addition target cells per type were inoculated into a multi-well plastic dish (hereinafter referred to as a “well”) having 96 wells, and were cultured for 4 to 5 days in a culture medium supplemented with 5 to 10% of Fetal Bovine Serum (FBS) depending on the cell types. D-Allose, D-glucose and D-altros were each added at concentration of 50 mM to the addition target cells per type. Similarly, D-fructose as a control was added at a concentration of 50 mM. To examine the influence upon the cell proliferation, the cell number was measured in units of 24 hours by using the MTT method described below.
(1) Preparation of reagents: A predetermined amount of MTT (tetrazolium salt) was dissolved in PBS(−) sterilized in an autoclave to obtain an MTT solution through filtering and sterilization. An acidic solution was prepared by adding 50 mL of N,N-dimethylformaldehyde and water to a predetermined amount of (20 g) of SDS, thereby obtaining a 100 mL of solution. […]
(2) Test method: The cells were treated with TEP to prepare a cell suspension liquid. […] The absorbance of the liquid was measured at a wavelength of 570 to 600 nm by using a spectrophotometer. After dissolving the colored substance (formazan) in the acid solution, the absorbance can be measured directly by a plate reader.

[2] = tested on: Rat leukocyte (granulocyte); assay: production of active oxygen from leukocyte, LO12 chemiluminescence, zymosan; assay type: cell-based; conditions: for production of active oxygen from leukocyte: saccharide 10 mM added to the producing system, zymosan
Protocol: Influences of various kinds of rare saccharides upon production of active oxygen from leukocyte were examined under the conditions given below. In this Example 5, an effect against the production of active oxygen from leukocyte was examined with LO12 chemiluminescence.
(1) Target leukocyte to which the rare saccharides were added: Rat leukocyte (granulocyte) was used.
(2) Rare saccharides added: In addition to D-allose as a rare saccharide belonging to aldose, D-psicose and D-altros as rare saccharides belonging to ketose and D-tallitol belong to polyol were added as other comparative saccharides. Further, D-glucose and D-fructose were employed as saccharides abundant in the natural world.
(3) Experiment method: (1) Changes over time in production of active oxygen from rat leukocyte . . . The time-dependent progress in production of active oxygen caused by adding zymosan particles to rat leukocyte (granulocyte) was examined. Also, the time-dependent progress in production of active oxygen caused under the presence of each of the rare saccharides was examined.
(2) Influences of rare saccharides upon production of active oxygen . . . By adding the various saccharides to the system for producing active oxygen from leukocyte, the amount of produced active oxygen was measured for each saccharide. The concentration of each of the added rare saccharides was set to 10 mM. Also, the measurement was made under the condition without addition of any saccharides.
(3) Effect of rare saccharides upon production of active oxygen . . . The rare saccharides were each added at concentration of 10 mM after the start of phagocytosis and the start of the production of active oxygen subsequent to addition of zymosan to leukocyte.
(4) Concentration dependency of active-oxygen production inhibitory effect of D-allose . . . Concentration dependency of the active-oxygen production inhibitory effect of D-allose was examined. D-allose was added at concentration of 0 mM, 5 mM and 10 mM.

[3] = rat blood-sugar value after intravenous saccharide under anesthesia; assay type: in vivo; conditions: for blood sugar value: 200 mg/kg BW intravenous, normal rats under anesthesia, fasted
Protocol: (2) Method: 1) Administration of rare saccharide: An SD male rat (with weight of about 300 g) was employed in an experiment after fasting for 20 to 24 hours. Nembutal (58 mg/kg B.W) was applied to the rat through abdominal administration, and after cutting the neck under anesthesia, a silicon tube was fixedly kept inserted in the jugular vein. A 1-ml syringe was connected to the silicon tube for administration of the rare saccharide. 2) Blood-collecting: Blood was collected by using the 1-ml syringe through the silicon tube inserted in the jugular vein. The blood-collecting was made immediately before the administration of the rare saccharide and then after 5, 10, 15, 20, 25, 30, 60, 120, 180 and 240 minutes from the same. 3) Blood sugar measurement: The blood sugar value in the collected blood was measured by using Antosense II (made by Bayer Medical).

human albumin = human albumin (Homo sapiens, UniProt P02768); assay: saccharification (glycation) of albumin, glycoalbumin reagent; assay type: biochemical; conditions: albumin 3 g/dl
human albumin, sequence (P02768 25-609): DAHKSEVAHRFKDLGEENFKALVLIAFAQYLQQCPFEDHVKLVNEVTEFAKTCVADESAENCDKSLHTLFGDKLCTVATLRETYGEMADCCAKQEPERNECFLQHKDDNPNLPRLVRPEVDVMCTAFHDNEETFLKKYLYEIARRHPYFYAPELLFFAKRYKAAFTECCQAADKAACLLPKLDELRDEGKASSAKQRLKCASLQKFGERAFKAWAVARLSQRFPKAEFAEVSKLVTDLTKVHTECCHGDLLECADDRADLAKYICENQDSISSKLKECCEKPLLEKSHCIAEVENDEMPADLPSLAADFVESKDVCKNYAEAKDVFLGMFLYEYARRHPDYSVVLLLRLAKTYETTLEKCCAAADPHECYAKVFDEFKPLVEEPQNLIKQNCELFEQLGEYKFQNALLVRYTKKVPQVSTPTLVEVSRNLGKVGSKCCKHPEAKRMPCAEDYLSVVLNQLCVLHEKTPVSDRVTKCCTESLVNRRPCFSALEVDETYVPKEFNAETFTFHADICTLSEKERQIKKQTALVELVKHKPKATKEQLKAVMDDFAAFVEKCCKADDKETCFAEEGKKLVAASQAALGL
Protocol: (2) Method: After fragmenting albumin into amino acids by using protease K, i.e., glycoalbumin (GA) measurement reagent (made by Oriental Yeast Co., Ltd.), glycolysine was measured by using ketoamine oxydase (see FIG. 38). Glycation of human albumin with various rare saccharides was examined. A sample was prepared through the steps of dissolving 3 g/dl of pure human albumin in PBS and then dissolving each of the rare saccharides so as to prepare a solution in final concentration of 55.5 mM. The prepared solution was filtrated with a filter of 0.25 μm mesh and sterilized, followed by incubation at 37° C. for 7 days. During the incubation, the GA concentration (glycolysine concentration) was measured at intervals of exactly 24 hours. Further, similar experiments were conducted by adding each of the rare saccharides in an albumin solution (final concentration 3 g/dl) and a glucose solution (final concentration 55.5 mM) so that each of the rare saccharides had final concentration of 55.5 mM.

[4] = saccharide 55.5 mM + D-glucose 55.5 mM
[5] = saccharide 55.5 mM, 37° C., 7 days

SMILES | proliferation of HepG2 cells (cell number over time) [1] | effective concentration for active-oxygen production inhibition ([2]; 0, 5 and 10 mM tested) | production of active oxygen, saccharide added after start of production ([2]; 10 mM added after start of phagocytosis and of active oxygen production) | active-oxygen production inhibitory effect ([2]; D-allose 5 mM) | inhibition at 10000 µM ([2]; Rattus norvegicus, Leukocyte, D-allose 10 mM, read-out: active-oxygen production inhibitory effect) [%] | production of active oxygen from leukocyte [2] | blood sugar value [3] | saccharification rate of albumin under coexistence with glucose (human albumin; [4]) | saccharification rate of albumin (human albumin; [5]) | time until blood sugar value approached a normal value ([3]; D-glucose 200 mg/kg BW intravenous) | blood sugar value ([3]; listed as Psicose) | effect of inhibiting glycation under coexistence with glucose (human albumin; [4]) | glycation (saccharification) of albumin (human albumin; [5])
O=C[C@H](O)[C@H](O)[C@H](O)[C@H](O)CO [D-allose] | strongly inhibited proliferation; also recorded: has a proliferation inhibitory effect | approximately 10 mM | the inhibitory effect was found | did not appear | ≥ 50 | inhibited; also recorded: has an effect of inhibiting production of active oxygen; also recorded: very strong effect of inhibiting the production of active oxygen | no hypoglycemic was found | about 140 μmol/day | about 90 μmol/day | – | – | – | –
O=C[C@H](O)[C@@H](O)[C@H](O)[C@H](O)CO [D-glucose, reference compound] | hardly found | – | – | – | – | No inhibitory effect | temporarily increased | – | about 50 μmol/day | about 60 minutes | – | – | –
O=C(CO)[C@H](O)[C@H](O)[C@H](O)CO [D-psicose] | – | – | – | – | – | No inhibitory effect | light hypoglycemic | – | – | – | reduced during a period of 30 to 60 minutes | not found | not found; also recorded: does not promote saccharification of albumin
